Data from patent US20230099441A1, “HETEROCYCLIC COMPOUND, APPLICATION THEREOF, AND COMPOSITION CONTAINING SAME” (GenEros Biopharma Ltd., priority 2019, published 2023).

Key:
[1] = tested on: STAT5 Y694 phosphorylation; assay: Protein electrophoresis and blotting of STAT5 Y694 phosphorylation in Jurkat cells stimulated with human interferon beta; assay type: cell-based; settings: observed pSTAT5 bands at 10 μM and 100 μM
Outline: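 Serum-free Jurkat cells pretreated with compound 1 h, then stimulated with 20 ng/ml human interferon beta for 30 min at 37° C. pSTAT5 measured by western blot with chemiluminescence, normalized to GAPDH and expressed as percent of DMSO control.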

[2] = tested on: STAT5 Y694 phosphorylation; assay: HTRF experiment: STAT5 Y694 phosphorylation in Hela cells stimulated with human interferon beta; assay type: cell-based; settings: 2 hours pretreatment, 10 nM human interferon beta 30 minutes
[3] = Body weight of animals in the mouse collagen-induced arthritis model; assay type: in vivo; settings: oral, X8 1 mg/kg once a day; for body weight of animals, Mean/g: mean of group, Methotrexate 0.25 mg/kg once a week, Tofacitinib 5 mg/kg once a day
Excerpt: (§1) Sixty male DBA/1J mice (9-10 weeks old, H-2q haplotype) were acclimatized in a standard animal room for one week and then randomly divided into 5 groups. Except for the healthy control group, the rest were inoculated with collagen antigen injection, and then received oral treatment with different compounds. The brief procedure was to mix bovine type II collagen (purchased from Chondrex, 20021) with an equal volume of Freund's complete adjuvant (purchased from Sigma, F5881), the concentration was 4 mg/ml, and it was treated with a homogenizer at a speed of 20,000 revolutions/min for 5-10 minutes. A needle was inserted between the left side of the dorsal caudal artery and the lateral vein of the mouse, and 50 microliters of modeling agent was injected subcutaneously. 21 days after the first injection, another injection was injected between the right side of the dorsal tail artery and the lateral vein of the mouse. After the first injection, oral administration was started. The drug was formulated with […] PEG300, and it was prepared for immediate use. […] The total score was between 0-12 points, and the swelling of the foot after vaccination was not calculated.

[4] = tested on: mouse collagen-induced arthritis model; assay: Therapeutic efficacy in a mouse collagen-induced arthritis model (clinical score); assay type: in vivo; settings: mean of group, total score 0-12, oral, Methotrexate 0.25 mg/kg once a week, Tofacitinib 5 mg/kg once a day, X8 1 mg/kg once a day
Excerpt: Example of Effect 2: Evaluation of the Therapeutic Efficacy of X8 Compound in a Mouse Collagen-Induced Arthritis Model
as §1

In the case of `O=C(C(=O)N1CCC(n2c(=O)[nH]c3cccc(C(F)(F)F)c32)CC1)c1ccc(C(F)(F)F)cc1` [GEN1-160, 1-(4-(2-oxo-7-(trifluoromethyl)-2,3-dihydro-1H-benzo[d]imidazol-1-yl)piperidin-1-yl)-2-(4-(trifluoromethyl)phenyl)1,2-dione], the “Example of Effect 1: Inhibiting Ability (Protein Electrophoresis and Blotting)” value (“Example of Effect 1: Inhibiting Ability” for short) [1] is reported as “+” and the “Example of Effect 3: Inhibiting Ratio@10 μM (HTRF Experiment)” value [2] is reported as 10.27%.
In the case of `O=C(Cc1ccc(C(F)(F)F)cc1)N1CCC(N2Cc3ccccc3NC2=O)CC1` [GEN1-161, 3-(1-(2-(4-(trifluoromethyl)phenyl)acetyl)piperidin-4-yl)-3,4-dihydroquinazolin-2(1H)-one], the “Example of Effect 1: Inhibiting Ability” value [1] is reported as “+” and the “Example of Effect 3: Inhibiting Ratio@10 μM (HTRF Experiment)” value [2] is reported as 1.38%.
For `O=C(Cc1ccc(C(F)(F)F)cc1)N1CCC(N2C(=O)NCc3ccccc32)CC1` [GEN1-162, 1-(1-(2-(4-(trifluoromethyl)phenyl)acetyl)piperidin-4-yl)-3,4-dihydroquinazolin-2(1H)-one], the “Example of Effect 1: Inhibiting Ability” value [1] was “+” and the “Example of Effect 3: Inhibiting Ratio@10 μM (HTRF Experiment)” value [2] was 22.04%.
In the case of `Cc1[nH]c(=O)n(C2CCN(C(=O)Cc3ccc(C(F)(F)F)cc3)CC2)c1-c1ccccc1` [GEN1-166, 4-methyl-5-phenyl-1-(1-(2-(4-(trifluoromethyl)phenyl)acetyl)piperidin-4-yl)-1H-imidazole-2(3H)-one], the “Example of Effect 1: Inhibiting Ability” value [1] is reported as “+” and the “Example of Effect 3: Inhibiting Ratio@10 μM (HTRF Experiment)” value [2] is reported as 15.16%.
In the case of `O=C(Cc1ccc(C(F)(F)F)cc1)N1CCC2(CC1)C(=O)Nc1ccccc12` [GEN1-167, 1′-(2-(4-(trifluoromethyl)phenyl)acetyl)spiro[indoline-3,4′-piperidine]-2-one], the “Example of Effect 1: Inhibiting Ability” value [1] is reported as “+” and the “Example of Effect 3: Inhibiting Ratio@10 μM (HTRF Experiment)” value [2] is reported as 15.57%.
For `COc1ccc(CC(=O)N2CCC(n3c(=O)[nH]c4cccc(C(F)(F)F)c43)CC2)cc1OC` [GEN1-168, 1-(1-(2-(3,4-dimethoxyphenyl)acetyl)piperidin-4-yl)-7-(trifluoromethyl)-1,3-dihydro-2H-benzo[d]imidazol-2-one], the “Example of Effect 1: Inhibiting Ability” value [1] was “+” and the “Example of Effect 3: Inhibiting Ratio@10 μM (HTRF Experiment)” value [2] was 47.57%.
With `O=C(Cc1c[nH]c2ccccc12)N1CCC(n2c(=O)[nH]c3cccc(C(F)(F)F)c32)CC1` [GEN1-169] the “Example of Effect 1: Inhibiting Ability” value [1] was “+” and the “Example of Effect 3: Inhibiting Ratio@10 μM (HTRF Experiment)” value [2] was 13.47%.
In the case of `CC(=O)/N=c1\[nH]c2cccc(C(F)(F)F)c2n1C1CCN(C(=O)Cc2ccc3ncccc3c2)CC1` [GEN1-171], the “Example of Effect 1: Inhibiting Ability” value [1] is reported as “−” and the “Example of Effect 3: Inhibiting Ratio@10 μM (HTRF Experiment)” value [2] is reported as 9.85%.
With `O=C(/N=c1\[nH]c2cccc(C(F)(F)F)c2n1C1CCN(C(=O)Cc2ccc3ncccc3c2)CC1)c1ccccc1` [GEN1-172] the “Example of Effect 1: Inhibiting Ability” value [1] was “−” and the “Example of Effect 3: Inhibiting Ratio@10 μM (HTRF Experiment)” value [2] was 13.83%.
For `O=C(Cc1ccc2ncccc2c1)N1CCCC(n2c(=O)[nH]c3cccc(C(F)(F)F)c32)CC1` (centres unmarked) [GEN1-173, 1-(1-(2-(quinolin-6-yl)acetyl)azacycloheptane-4-yl)-7-(trifluoromethyl)-1,3-dihydro-2H-benzo[d]imidazol-2-one], the “Example of Effect 1: Inhibiting Ability” value [1] was “+” and the “Example of Effect 3: Inhibiting Ratio@10 μM (HTRF Experiment)” value [2] was 50.75%.
In the case of `O=C(Cc1ccc(C(F)(F)F)cc1)N1CCC(Cn2c(=O)[nH]c3cccc(C(F)(F)F)c32)CC1` [GEN1-174, 7-(trifluoromethyl)-1-((1-(2-(4-(trifluoromethyl)phenyl)acetyl)piperidin-4-yl)methyl)-1H-benzo[d]imidazol-2(3H)-one], the “Example of Effect 1: Inhibiting Ability” value [1] is reported as “+” and the “Example of Effect 3: Inhibiting Ratio@10 μM (HTRF Experiment)” value [2] is reported as 39.65%.
For `CN(Cc1cnc2nc(N)nc(N)c2n1)c1ccc(C(=O)N[C@@H](CCC(=O)O)C(=O)O)cc1` [Methotrexate, methotrexate], the “body weight of animals, Mean/g” value ([3]; day 0) was 21.92 g, the “body weight of animals, Mean/g” value ([3]; day 4) was 22.30 g and the “body weight of animals, Mean/g” value ([3]; day 7) was 22.91 g. For the same compound, the “body weight of animals, Mean/g” value ([3]; day 11) was 23.33 g, the “body weight of animals, Mean/g” value ([3]; day 14) was 21.72 g and the “body weight of animals, Mean/g” value ([3]; day 18) was 23.92 g. For the same compound, the “body weight of animals, Mean/g” value ([3]; day 20) was 24.09 g, the “body weight of animals, Mean/g” value ([3]; day 25) was 23.64 g and the “body weight of animals, Mean/g” value ([3]; day 28) was 23.48 g. The “body weight of animals, Mean/g” value ([3]; day 31) was 23.12 g, the “body weight of animals, Mean/g” value ([3]; day 33) was 23.00 g and the “body weight of animals, Mean/g” value ([3]; day 35) was 22.08 g. For the same compound, the “body weight of animals, Mean/g” value ([3]; day 38) was 22.86 g, the “body weight of animals, Mean/g” value ([3]; day 40) was 22.70 g and the “body weight of animals, Mean/g” value ([3]; day 42) was 22.45 g. The “body weight of animals, Mean/g” value ([3]; day 45) was 22.30 g, the “effect on body weight of animals (in words)” value ([3]; whole experiment, days 0-45, methotrexate 0.25 mg/kg once a week, tofacitinib 5 mg/kg once a day) was “two sudden drops” and the “clinical score of arthritis, Mean (the larger the value, the more severe the disease)” value (from here on “clinical score of arthritis, Mean”) ([4]; day 0) was 0.00. The “clinical score of arthritis, Mean” value ([4]; day 21) was 0.00, the “clinical score of arthritis, Mean” value ([4]; day 25) was 0.00 and the “clinical score of arthritis, Mean” value ([4]; day 28) was 0.40. For the same compound, the “clinical score of arthritis, Mean” value ([4]; day 31) was 1.32, the “clinical score of arthritis, Mean” value ([4]; day 33) was 1.55 and the “clinical score of arthritis, Mean” value ([4]; day 35) was 2.05. For the same compound, the “clinical score of arthritis, Mean” value ([4]; day 38) was 2.41, the “clinical score of arthritis, Mean” value ([4]; day 40) was 2.60 and the “clinical score of arthritis, Mean” value ([4]; day 42) was 3.66. For the same compound, the “clinical score of arthritis, Mean” value ([4]; day 45) was 4.61.
